Source: BindingDB's records for PubMed 36971365 (Dongguk University, 2023)

Target: Signal transducer and activator of transcription 3 (Homo sapiens, UniProt P40763)
Assay: Inhibition of STAT3 (unknown origin) transfected in human HepG2 cells assessed as inhibition of IL-6 induced STAT3 phosphorylation by luciferase reporter gene assay

Signal transducer and activator of transcription 3, sequence (P40763 whole entry): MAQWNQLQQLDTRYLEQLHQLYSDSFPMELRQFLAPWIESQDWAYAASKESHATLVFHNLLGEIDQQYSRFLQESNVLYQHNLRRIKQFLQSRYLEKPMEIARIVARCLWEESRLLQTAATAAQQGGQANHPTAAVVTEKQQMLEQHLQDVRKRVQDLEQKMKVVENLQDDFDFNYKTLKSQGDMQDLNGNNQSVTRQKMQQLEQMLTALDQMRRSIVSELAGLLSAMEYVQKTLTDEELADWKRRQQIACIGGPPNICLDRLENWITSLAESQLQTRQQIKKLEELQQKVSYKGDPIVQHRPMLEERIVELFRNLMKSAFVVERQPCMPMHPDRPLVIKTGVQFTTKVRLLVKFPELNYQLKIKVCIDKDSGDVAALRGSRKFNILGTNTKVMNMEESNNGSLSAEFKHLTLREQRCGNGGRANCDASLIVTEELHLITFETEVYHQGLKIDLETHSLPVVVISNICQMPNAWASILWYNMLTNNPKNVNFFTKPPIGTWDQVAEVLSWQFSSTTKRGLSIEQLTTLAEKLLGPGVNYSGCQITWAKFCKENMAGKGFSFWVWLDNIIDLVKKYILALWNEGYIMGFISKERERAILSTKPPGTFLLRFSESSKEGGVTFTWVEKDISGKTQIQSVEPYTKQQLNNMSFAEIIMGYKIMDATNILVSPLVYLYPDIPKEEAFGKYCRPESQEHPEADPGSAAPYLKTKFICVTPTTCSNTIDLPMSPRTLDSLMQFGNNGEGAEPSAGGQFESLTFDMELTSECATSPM

In the case of `C=C(CCCCC)[C@@H](O)[C@H](C)C(=O)N1C(=O)OC[C@@H]1C(C)C`, the IC50 is reported as 5.9 µM.
